The source of these data is PMC8749467, “A new ALK inhibitor overcomes resistance to first‐ and second‐generation inhibitors in NSCLC” (EMBO Molecular Medicine, 2021).

Where two headings read alike, the source gives them in different places.

Data set [1] deals with kinase panels. Conditions: cited from earlier work.
Data set [2] concerns EML4-ALK Ba/F3 cells. Description: Cell survival assay (MTS). Particulars: EML4-ALK Ba/F3, 48 h.
Experimental: (§1) The murine Pro‐B cell line Ba/F3 cells were provided by Jianming Zhang from Shanghai Jiaotong University. All cells were authenticated by short tandem repeat testing and tested negative for mycoplasma contamination using Luminescent Mycoplasma Detection Kit (Beyotime, Shanghai, China). […] All of these cell lines were maintained at 37°C and 5% CO2.
(§2) Cell viability was determined by MTS assay (Promega).
Data set [3] has as its system parental (wild-type) Ba/F3 cells. Description: Cell survival assay (MTS). Particulars: Mus musculus, BaF3, 48 h. It counts as cell-based, murine.
Experimental: as §1, §2
The nature of data set [4]: Pharmacokinetics in ICR mice.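 As to all read-outs here: drug levels in collected samples measured by LC-MS/MS.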 It counts as in vivo. Particulars: for concentration at […] / concentration at 0.25 h / concentration at 0.5 h / concentration at 1 h / concentration at 2 h / concentration at 4 h / concentration at 8 h / concentration at 24 h: ICR, blood, read-out: Blood drug concentration; for concentration at […]: 0.083 h; for MRT inf: read-out: MRT(0-∞); for Vd: read-out: Vz.
Experimental: Then the samples were quantified by LC-MS/MS, and data analysis was conducted using WinNonlin V6.3. IV = intravenous injection, PO = oral delivery, Tmax = time of maximum plasma concentration, Cmax = maximum plasma concentration, AUC = area under the curve (measure of exposure), T1/2 = half life, CL = plasma clearance, Vz = volume of distribution, F = oral bioavailability.

The mark [5] stands for this setting: reported data ref Huber et al, 2014.
Where [6] appears, read: mouse, plasma, IV, 5 mg/kg, ICR mice.
[7] abbreviates: mouse, plasma, IV, 30 mg/kg, ICR mice.
Setting [8] is: mouse, plasma, IV, 60 mg/kg, ICR mice.
[9] abbreviates: mouse, plasma, PO, 10 mg/kg, ICR mice.

Turning to `CCc1cc2c(cc1N1CCC(N3CCOCC3)CC1)C(C)(C)c1[nH]c3cc(C#N)ccc3c1C2=O` [Alectinib, alectinib], the “S(10)” value in data set [1] (reported data ref Sakamoto et al, 2011) is on record as 0.07.

As a reminder, the IC50 is the concentration needed to halve the response being measured. Take `COc1cc(N2CCC(N3CCN(C)CC3)CC2)ccc1Nc1ncc(Cl)c(Nc2ccccc2P(C)(C)=O)n1` [Brigatinib, brigatinib]: the midpoint of inhibition in data set [2] (Mus musculus, BaF3, 48 h), the IC50, lay at 17.3 nM. The “S(10)” value in data set [1] (reported data ref Zhang et al, 2016) was 0.34.

Take `Cc1cc(Nc2ncc(Cl)c(Nc3ccccc3S(=O)(=O)C(C)C)n2)c(OC(C)C)cc1C1CCNCC1` [Ceritinib, ceritinib]: in data set [2] (Mus musculus, BaF3, 48 h), the midpoint of inhibition, the IC50, lay at 1.2 nM. Further, in data set [1] (reported data ref Jang et al, 2017), the “S(10)” value is 0.19.

In the case of `C[C@@H](Oc1cc(-c2cnn(C3CCNCC3)c2)cnc1N)c1c(Cl)ccc(F)c1Cl` [Crizotinib, crizotinib], the IC50 in data set [3] was 1120 nM. Besides, in data set [1] (setting [5]), the “S(35)” value is given as 0.21 and the “number of kinases with ctrl ≤35%” value was 94.

`C[C@H]1Oc2cc(cnc2N)-c2c(nn(C)c2C#N)CN(C)C(=O)c2ccc(F)cc21` [Lorlatinib, lorlatinib] returned an IC50 in data set [2] of 1.5 nM.

As usually defined, the AUC(0-inf) is the area under the concentration-time curve extrapolated to infinity. Broadly, the AUC(0-t) is exposure summed from dosing to a finite time, without extrapolation to infinity. A low value points to low exposure. Broadly, the Cmax is the highest concentration seen after dosing. As a reminder, the Tmax is the time at which the peak concentration occurs. By clearance is commonly meant the volume of plasma or blood freed of the substance per unit of time. A low value points to inefficient removal. One may read the half-life as the time needed for the level to fall by half in the phase considered. Low values mean fast loss, high ones slow loss. A word on the bioavailability: it is dose-corrected exposure relative to a reference, in per cent. For the compound `COc1cc2c(cc1Nc1nc(Nc3ccccc3S(=O)(=O)C(C)C)c3[nH]ccc3n1)N(C(=O)CN(C)C)CC2` [XMU-MP-5], in data set [4] (mouse, IV, 5 mg/kg, mice), the concentration at […] is 4300 ng/mL, the concentration at 0.25 h worked out at 2430 ng/mL, the concentration at 0.5 h was 1530 ng/mL and the concentration at 1 h is 613 ng/mL. Besides, in data set [4] (mouse, IV, 5 mg/kg, mice), the concentration at 2 h turned out to be 308 ng/mL, the concentration at 4 h was 72.8 ng/mL, the concentration at 8 h stood at 28.7 ng/mL and the concentration at 24 h turned out to be 2.09 ng/mL. Besides, in data set [4] (mouse, IV, 30 mg/kg, mice), the concentration at […] came to 8260 ng/mL, the concentration at 0.25 h turned out to be 5430 ng/mL, the concentration at 0.5 h is 3870 ng/mL and the concentration at 1 h was 2990 ng/mL. In data set [4] (mouse, IV, 30 mg/kg, mice), the concentration at 2 h is 2060 ng/mL, the concentration at 4 h was 688 ng/mL, the concentration at 8 h amounted to 171 ng/mL and the concentration at 24 h was 17.9 ng/mL. Besides, in data set [4] (mouse, IV, 60 mg/kg, mice), the concentration at […] was 12400 ng/mL, the concentration at 0.25 h amounted to 7190 ng/mL, the concentration at 0.5 h came out at 6430 ng/mL and the concentration at 1 h was 5430 ng/mL. For the same compound, in data set [4] (mouse, IV, 60 mg/kg, mice), the concentration at 2 h was 2910 ng/mL, the concentration at 4 h was found to be 2580 ng/mL, the concentration at 8 h amounted to 555 ng/mL and the concentration at 24 h was determined as 29.6 ng/mL. In data set [4] (IV, 5, 30 and 60 mg/kg, mice), the “dose dependence of blood drug concentrations” value is recorded as “linear increase”. In data set [4] (setting [6]), this compound came in with an AUC(0-inf) of 3310 ng·h/mL, an AUC(0-t) of 3300 ng·h/mL, a C0 of 5720 ng/mL and a Cmax of 4300 ng/mL. Moreover, in data set [4] (setting [6]), the Tmax is 0.08 h, the clearance was 25.2 mL/min/kg, the half-life is 3.99 h and the MRT inf came out at 1.74 h. Also, the Vd in data set [4] (setting [6]) was 8.7 L/kg. In data set [4] (setting [7]), this compound had an AUC(0-inf) of 13200 ng·h/mL, an AUC(0-t) of 13100 ng·h/mL, a C0 of 10200 ng/mL and a clearance of 37.8 mL/min/kg. For the same compound, in data set [4] (setting [7]), the half-life is 4.93 h, the MRT inf turned out to be 2.95 h and the Vd was found to be 6.7 L/kg. Besides, in data set [4] (setting [8]), the total exposure AUC(0-inf) worked out at 26400 ng·h/mL, the AUC(0-t) was 26200 ng·h/mL, the C0 is 16300 ng/mL and the clearance was 37.8 mL/min/kg. Further, in data set [4] (setting [8]), the half-life was 4.01 h, the MRT inf stood at 3.39 h and the Vd was 7.71 L/kg. For the same compound, in data set [4] (setting [9]), the AUC(0-inf) amounted to 1270 ng·h/mL, the AUC(0-t) stood at 1210 ng·h/mL, the Cmax came to 474 ng/mL and the Tmax was determined as 0.5 h. For the same compound, in data set [4] (setting [9]), the half-life was 1.53 h and the MRT inf is 3.08 h. Moreover, the bioavailability in data set [4] (mouse, plasma, PO, 10 mg/kg, ICR mice, read-out: F (oral bioavailability)) stood at 18.3%.
